Measured values as given in patent US20200024573A1, “CHEMICAL DIFFERENTIATION OF PLURIPOTENT STEM CELLS INTO RETINAL EPITHELIAL CELLS” (International Stem Cell Corporation, priority 2014, published 2020).

System: retinal epithelial progenitor cells
Test: Derivation of retinal pigmented epithelium from hPSCs in 3D culture
Type: cell-based, human
Details: hPSC 3D cultures, N2/B27 medium containing Chir99021 (3 μM) for 15 days, after 12 days SB431542, IWR-1, DMH-1, Y-27632
Method: hPSCs cells growing under feeder-free culture conditions were dissociated with Accutase and grown in suspension in Ultra-low 6 well plates, with N2/B27 medium (DMEM/F12 with GlutaMAX, 1× N2/B27 Supplement) plus SB431542 (10 μM), IWR-1 (3 μM), DMH-1 (2 μM), and Y-27632 (10 μM) for 12 days (FIGS. 1A-1C) to generate retinal epithelial progenitor cells. After 12 days, to differentiate the retinal epithelial progenitor cells into retinal pigmented epithelium into RPEs, hPSC 3D cultures were switch into N2/B27 medium containing Chir99021 (3 μM) for 15 days (FIGS. 1A-1C and 2). […] Derivation of RPEs was confirmed by immunohistochemistry for RPE specific protein expression (MITF, ZO-1, Best-1 and Melanosome) and by RT-PCR gene analysis for RPE specific gene markers ([…], BEST1 OTX2, RLBP1, RPE65 and SERINF1) (FIGS. 3 and 4). FACS analysis was performed to determine the percentage of cells positive for RPE specific proteins MITF, Mel and BEST (FIGS. 5A-5C).

Cc1c[nH]c(-c2cnc(NCCNc3ccc(C#N)cn3)nc2-c2ccc(Cl)cc2Cl)n1 [Chir99021]
maturation/pigmentation of retinal epithelial progenitor cells: promotes the maturation/pigmentation of retinal epithelial progenitor cells
